# In patent publication US4847254A, “CNS affecting 5-oxy-3-aminomethyl-dihydro-benzofurans and benzothiophenes” (H. Lundbeck A/S, priority 1987, dated 1989):
# Legend:
# [1] = tested on: DA-autoreceptors; test: Inhibition of spontaneous locomotor activity (motility inhibition) in rats; type: in vivo, rat (Wistar); conditions: doses calculated as the free amine
# [2] = tested on: postsynaptic DA-receptors; test: Reversal of locomotor depression (hypomotility) in reserpine plus alpha-methyl-p-tyrosine pretreated rats; type: in vivo, rat (Wistar)
# [3] = tested on: DA-receptor; test: Contralateral circling in rats with unilateral 6-hydroxy-DA (6-OHDA) lesions; type: in vivo, rat (Wistar); conditions: 6-OHDA-lesioned rats, doses calculated as the free amine
# Description: Furthermore, the potency of the drug to induce contralateral circling behaviour in 6-hydroxy-DA-lesioned rats was determined. The specificity of this receptor resembles that of the […] DA receptors mediating motility inhibition.
# The experiments were made according to published methods, using rats of the Wistar strain.
# Therefore, also the ability of a test compound to induce contralateral circling in rats with unilateral 6-hydroxy-DA lesions was evaluated (loc cit.).
# [4] = tested on: postsynaptic DA-receptors; conditions: reversal of locomotor depression in DA-depleted rats; statement in words; cited from earlier work
# [5] = tested on: presynaptic DA-receptors (DA-autoreceptors); conditions: cited from earlier work
# [6] = tested on: DA receptors; test: DA stimulating properties / effect at pre- and postsynaptic DA receptors (general statement); type: in vivo; conditions: statement in words
SMILES,Motility Inh. rats (sc) ED50 [1] [µmol/kg],Reserpin α-Mt Rev. rats (sc) ED50 [2] [µmol/kg],6-OHDA Contr. Circle. rats (sc) ED50 [3] [µmol/kg],effect in reserpine plus alpha-methyl-p-tyrosine model [4],"clinical success at low doses ([5]; low doses, patients with schizophrenia and tardive dyskinesias)",selectivity of action at DA autoreceptors vs postsynaptic DA receptors ([5]; postsynaptic DA receptors stimulated by slightly higher doses),Reserpin α-Mt Rev. rats (sc) % at 5 μmol/kg [2] [%],DA stimulating properties [6]
"CCN(CC)CC1CCc2ccc(O)cc21 (single isomer, unassigned; (+)) [Lu 22-106, (+) N,N-diethyl-6-hydroxy-1-indanmethylamine]",1.1,14,0.36,–,–,–,–,–
"CCCN(C)CC1COc2ccc(O)cc21 (single isomer, unassigned; (+)) [Lu 25-020, (+)-5-hydroxy-2,3-dihydro-N-methyl-N-propyl-3-benzofuranmethylamine]",4.1,65,0.95,–,–,–,–,–
"CCCN(CCC)CC1CCc2ccc(O)cc21 (single isomer, unassigned; (-)) [Lu 22-049, (-)-N,N-dipropyl-6-hydroxy-1-indanmethylamine]",0.26,4.5,0.18,–,–,–,–,–
"CCCN(CCC)CC1CCc2ccc(O)cc21 (single isomer, unassigned; (-)) [Lu 22-050, (-)-N,N-dipropyl-6-hydroxy-1-indanmethylamine]",1.3,60,0.45,–,–,–,–,–
"CCN(CC)CC1CCc2ccc(O)cc21 (single isomer, unassigned; (-)) [Lu 22-105, (-) N,N-diethyl-6-hydroxy-1-indanmethylamine]",0.87,120,1.2,–,–,–,–,–
"CCCN(CCC)CC1COc2ccc(O)cc21 (single isomer, unassigned; (-)) [Lu 24-121, (-)-5-hydroxy-2,3-dihydro-N,N-dipropyl-3-benzofuranmethylamine]",5.4,86,1.7,–,–,–,–,–
"CCCN(C)CC1COc2ccc(O)cc21 (single isomer, unassigned; (-)) [Lu 25-021, (-)-5-hydroxy-2,3-dihydro-N-methyl-N-propyl-3-benzofuranmethylamine]",5.4,290,5.2,–,–,–,–,–
"CCCN1CCC[C@@H](c2cccc(O)c2)C1 [(--)-3-PPP, reference compound]",4.2 to 11,> 67,0.77,without effect,–,–,–,–
"CN1CCc2cccc3c2[C@H]1Cc1ccc(O)c(O)c1-3 [Apomorphine, apomorphine, reference compound]",0.64,0.27,0.06,–,used with some success,no selective action at DA autoreceptors,–,–
"CCCN(CCC)CC1CCc2ccc(O)cc21 (stereo not drawn) [Lu 21-051, N,N-dipropyl-6-hydroxy-1-indanmethylamine]",0.45,–,0.35,–,–,–,44,–
"CCCN(CCC)CC1CCc2ccccc21 (stereo not drawn) [Lu 21-091, N,N-Dipropyl-1-indanmethylamine]",> 62,–,> 62,–,–,–,–,without any DA stimulating properties
"CCN(CC)CC1CCc2ccc(O)cc21 (stereo not drawn) [Lu 21-096, N,N-diethyl-6-hydroxy-1-indanmethylamine]",1.0,–,0.19,–,–,–,50,–
"CN(C)CC1CCc2ccc(O)cc21 (stereo not drawn) [Lu 21-112, N,N-dimethyl-6-hydroxy-1-indanmethylamine]",5.7,12,0.95,–,–,–,–,–
"CCCN(CCc1ccccc1)CC1CCc2ccc(O)cc21 (stereo not drawn) [Lu 21-113, 6-Hydroxy-N-propyl-N-(2-phenylethyl)-1-indanmethylamine]",0.51,–,0.12,–,–,–,63,–
"CCCN(CCC)CC1COc2ccc(O)cc21 (stereo not drawn) [Lu 23-130, 5-Hydroxy-2,3-dihydro-N,N-dipropyl-3-benzofuranmethylamine]",0.5 to 2,3.4,0.35,–,–,–,–,–
"CCCN(CCc1ccccc1)CC1COc2ccc(O)cc21 (stereo not drawn) [Lu 24-084, 5-Hydroxy-2,3-dihydro-N-(2-phenylethyl)-N-propyl-3-benzofuranmethylamine]",1.9,11,0.94,–,–,–,–,–
"CCN(CC)CC1COc2ccc(O)cc21 (stereo not drawn) [Lu 24-088, 5-Hydroxy-2,3-dihydro-N,N-diethyl-3-benzofuranmethylamine]",1.7,–,1.2,–,–,–,13,–
"CCCN(CCC)CC1CSc2ccc(O)cc21 (stereo not drawn) [Lu 24-100, 5-Hydroxy-2,3-dihydroxy-N,N-dipropyl-3-benzothiophenmethylamine]",3.0,20,4.6,–,–,–,–,–
"CCCN(CCO)CC1COc2ccc(O)cc21 (stereo not drawn) [Lu 24-102, 5-Hydroxy-2,3-dihydro-N-(2-hydroxyethyl)-N-propyl-3-benzofuranmethylamine]",5.4,19,2.1,–,–,–,–,–
"CCCN(C)CC1COc2ccc(O)cc21 (stereo not drawn) [Lu 24-103, 5-Hydroxy-2,3-dihydro-N-methyl-N-propyl-3-benzofuranmethylamine]",4.5,290,1.2,–,–,–,–,–
"CCCN(CCc1cccs1)CC1COc2ccc(O)cc21 (stereo not drawn) [Lu 24-155, 5-Hydroxy-2,3-dihydro-N-propyl-N-(2-thienyl-2-ethyl)-3-benzofuranmethylamine]",7.0,28,1.2,–,–,–,–,–
"CCCN(C)CC1CCc2ccc(O)cc21 (stereo not drawn) [Lu 25-009, 6-Hydroxy-N-methyl-N-propyl-1-indanmethylamine]",0.65,66,0.82,–,–,–,–,–
